Assay [1] addresses T1, FLK-1 receptor (Mus musculus, UniProt P35918).
T1 construct: expressed in transfected cells; host or cells: NIH3T3C7#3 cells (FLK-1 infected NIH3T3)
Nature of the assay: ELISA assay to measure kinase activity of FLK-1 receptor in FLK-1/NIH cells. The format is cell-based, murine. Here is the method: ELISA Assay To Measure Kinase Activity Of FLK-1 Receptor In FLK-1/NIH Cells
An ELISA assay was conducted to measure the kinase activity of the FLK-1 receptor and more specifically, the inhibition or activiation of protein tyrosine kinase activity on the FLK-1 receptor.
k. NIH3T3C7#3 Cells (FLK-1 infected cells);
Protocol. The following protocol was used to conduct the ELISA Assay:
1. Coat Corning 96-well elisa plates with 1.0 ug per well Cappel Anti-rabbit IgG antibody in 0.1M Na2CO3 pH 9.6. Bring final volume to 150 ul per well. Coat plates overnight at 4° C. Plates can be kept up to two weeks when stored at 4° C.
2. Grow cells in 30 ml of Growth media 9DMEM. 2.0 mM L-Glutamine, 10% FBS) until confluent in 150 cm tissue culture dishes at 37° C., 5% CO2.
3. Harvest cells by tyrpsination and seed in Corning 25850 polystyrene 96-well roundbottom cell plates, 25.000 cells/well in 200 uL of growth media.
4. Grow cells at least one day at 37° C., 5% CO2.
5. Wash cells with D-PBS 1X.
6. Add 200 ul/well of starvation media (DMEM, 2.0 mM l-Glutamine, 0.1% FBS). Incubate overnight at 37° C., 5% CO2.
7. Dilute Compounds/Extracts 1:20 in polyproplyene 96 well plates using starvation media. Dilute dimethylsulfoxide 1:20 for use in control wells.
8. Remove starvation media from 96 well cell culture plates and add 162 ul of fresh starvation media to each well.
9. Add 18 ul of 1:20 diluted Compound/Extract dilution (from step #7) to each well plus the 1:20 dimethylsulfoxide dilution to the control wells (+/-VEGF), for a final dilution of 1:200 after cell stimulation. Final dimethylsulfoxide is 0.5%. Incubate the plate at 37° C., 5% CO2 for two hours.
10. Remove unbound antibody from Elisa plates by inverting plate to remove liquid. Wash 3 times with TBSW+0.5% Ethanolamine, pH 7.0. Pat the plate on a paper towel to remove excess liquid and bubbles.
11. Block plates with TBSW+0.5% Ethanolamine, pH 7.0. 150 ul per well. Incubate plate thirty minutes while shaking on a microtiter plate shaker.
12. Wash plate 3 times as described in step 10.
13. Add 0.5 ug/well affinity purified anti-flk-1 polyclonal rabbit antiserum. Bring final volume to 150 ul/well with TBSW+0.5k Ethanolamine pH 7.0. Incubate plate for thirty minutes while shaking.
14. Add 180 μl starvation medium to the cells and stimulate cells with 20 ul/well 10.0 mM Sodium Ortho Vanadate and 500 ng/ml VEGF (resulting in a final concentration of 1.0 mM Sodium Ortho Vanadate and 50 ng/ml VEGF per well) for eight minutes at 37° C., 5% CO2. Negative control wells receive only starvation medium.
15. After eight minutes, media are removed from the cells and washed one time with 200 ul/well PBS.
16. Lyse cells in 150 ul/well HNTG while shaking at room temperature for five minutes. HNTG formulation includes sodium ortho vanadate, sodium pyro phosphate and EDTA.
17. Wash Elisa plate three times as described in step 10.
18. Transfer cell lysates from the cell plate to elisa plate and incubate while shaking for two hours. To transfer cell lysate pipette up and down while scrapping the wells.
19. Wash plate three times as described in step 10.
20. Incubate Elisa plate with 0.02 ug/well UB40 in TBSW+05% ethanolamine. Bring final volume to 150 ul/well. Incubate while shaking for 30 minutes.
21. Wash plate three times as described in step 10.
22. Incubate elisa plate with 1:10,000 diluted EIA grade Goat anti-mouse IgG conjugated horseradish peroxidase in TBSW+0.5% ethanolamine, pH 7.0. Bring final volume to 150 ul/well. Incubate while shaking for thirty minutes.
23. Wash plate as described in step 10.
24. Add 100 ul of ABTS/H202 solution to well. Incubate ten minutes while shaking.
25. Add 100 ul of 0.2M HCL for 0.1M HCL final to stop the colordevelopment reaction. Shake 1 minute at room temperature. Remove bubbles with slow stream of air and read the ELISA plate in an ELISA plate reader at 410 nm.

The subject of assay [2] is PC-3. Description: Tumor xenograft growth inhibition, PC-3 (prostate). The format is in vivo, human. Here is the method:
(§1) The ability of one of the compounds of the present invention, leflunomide (Compound 40), to inhibit ovarian, melanoma, prostate, lung and mammary tumor cell lines established as SC xenografts was examined. These studies were conducted using doses ranging from 12 to 20 mg/kg/day.
(§2) The tumor cells were implanted subcutaneously into the indicated strains of mice. Treatment was initiated on day 1 post implantation unless otherwise indicated (e.g. treatment of the SCID mouse related to the A375 melanoma cell line began on Day 9). Eight (8) to ten (10) mice comprised each test group.
(§3) Animals. Female athymic mice (BALB/c, nu/nu), BALB/c mice, Wistar rats and Fisher 344 rats were obtained from Simonsen Laboratories (Gilroy, Calif.). Female A/I mice were obtained from Jackson Laboratory (Bar Harbor, Me.). DA rats were obtained from B&K Universal, Inc. (Fremont, Calif.). Athymic R/Nu rats, DBA/2N mice, and BALB/c mice were obtained from Harlan Sprague Dawley (Indianapolis, Ind.). Female C57BL/6 mice were obtained from Taconic (Germantown, N.Y.). All animals were maintained under clean-room conditions in Micro-isolator cages with Alpha-dri bedding. They received sterile rodent chow and water ad libitum.
(§4) Subcutaneous Xenograft Model. Cell lines were grown in appropriate medium as described (See Section 6). Cells were harvested at or near confluency with 0.05% Trypsin-EDTA and pelleted at 450×g for 10 min. Pellets were resuspended in sterile PBS or media (without FBS) to a suitable concentration indicated in the Figure legends and the cells were implanted into the hindflank of mice. Tumor growth was measured over 3 to 6 weeks using venier calipers tumor volumes were calculated as a product of length x width x height unless otherwise indicated. P values were calculated using the Students' t-test. su101 in 50-100 uL excipient (dimethylsulfoxide, PBTE, PBTE6C:D5W, or PBTE:D5W) was delivered by IP injection at concentrations indicated in the Figure legends.

In assay [3] the test system is A375. Nature of the assay: Tumor xenograft growth inhibition, A375 (melanoma). The format is in vivo, human. Conditions: for % Inhibition (day): day 31. How it is done:
as §1, §2, §3, §4
A general note: In xenograft studies the graft and the host belong to different species.

Assay [4] deals with Calu-6. Nature of the assay: Tumor xenograft growth inhibition, Calu-6 (lung). It is filed as in vivo, human.
Excerpt: The ability of one of the compounds of the present invention, leflunomide (Compound 40), to inhibit ovarian, melanoma, prostate, lung and mammary tumor cell lines established as SC xenografts was examined. […]
as §2, §3, §4

Assay [5] relates to PA-1. Nature of the assay: Tumor xenograft growth inhibition, PA-1 (ovarian). It is filed as in vivo, human. Here is the method:
as §1, §2
Animals. Female athymic mice (BALB/c, nu/nu), BALB/c mice, Wistar rats and Fisher 344 rats were obtained from Simonsen Laboratories (Gilroy, Calif.). Female A/I mice were obtained from Jackson Laboratory (Bar Harbor, Me.). DA rats were obtained from B&K Universal, Inc. (Fremont, Calif.). Athymic R/Nu rats, DBA/2N mice, and BALB/c mice were obtained from Harlan Sprague Dawley (Indianapolis, Ind.). […]
Subcutaneous Xenograft Model. […] Tumor growth was measured over 3 to 6 weeks using venier calipers tumor volumes were calculated as a product of length x width x height unless otherwise indicated. P values were calculated using the Students' t-test. su101 in 50-100 uL excipient (dimethylsulfoxide, PBTE, PBTE6C:D5W, or PBTE:D5W) was delivered by IP injection at concentrations indicated in the Figure legends.

In assay [6] the test system is VEGF-induced "reddening" response and subsequent swelling (FLK-1 receptor). Nature of the assay: In vivo VEGF pellet model. The arrangement: species or system nude mice (Balb/C athymic nu/nu). Conditions: scored at 24 hours and 48 hours; drug in methylcellulose disc near VEGF pellet. From the text:
In this model, VEGF is packaged into a time-release pellet and implanted subcutaneously on the abdomen of nude mice to induce a `reddening` response and subsequent swelling around the pellet. Potential FLK-1 inhibitors may then be implanted in methylcellulose near the VEGF pellet ito determine whether such inhibitor may be used to inhibit the "reddening" response and subsequent swelling.
1) VEGF--human recombinant lyophilized product is commercially may be obtained from Peprotech, Inc., Princeton Business Park, G2; P.O. box 275, Rocky Hill, N.J. 08553.
2) VEGF packaged into 21 day release pellets were obtained from Innovative Research of America, using patented matrix driven delivery system. Pellets were packaged at […], 0.21, or 2.1 μg VEGF/pellet. These doses approximate 10 and 100 ng/day release of VEGF. (Innovative Research of America, 3361 Executive Parkway, P.O. box 2746, Toledo, Ohio 43606)
Protocol. The following protocol was then followed to conduct the VEGF pellet model:
1) VEGF, purchased from Peprotech, was sent to Innovative Research for Custom Pellet preparation;
2) Methylcellulose prepared at 1.5% (w/v) in sterile water;
3) Drugs solublized in methanol (usual concentration range=10 to 20 mg/ml);
4) Place sterile parafilm in sterile 10 cm plates; […]
9) Mice were scored at 24 hours and 48 hours for reddening and swelling response. […]

T1 sequence (P35918 20-1345): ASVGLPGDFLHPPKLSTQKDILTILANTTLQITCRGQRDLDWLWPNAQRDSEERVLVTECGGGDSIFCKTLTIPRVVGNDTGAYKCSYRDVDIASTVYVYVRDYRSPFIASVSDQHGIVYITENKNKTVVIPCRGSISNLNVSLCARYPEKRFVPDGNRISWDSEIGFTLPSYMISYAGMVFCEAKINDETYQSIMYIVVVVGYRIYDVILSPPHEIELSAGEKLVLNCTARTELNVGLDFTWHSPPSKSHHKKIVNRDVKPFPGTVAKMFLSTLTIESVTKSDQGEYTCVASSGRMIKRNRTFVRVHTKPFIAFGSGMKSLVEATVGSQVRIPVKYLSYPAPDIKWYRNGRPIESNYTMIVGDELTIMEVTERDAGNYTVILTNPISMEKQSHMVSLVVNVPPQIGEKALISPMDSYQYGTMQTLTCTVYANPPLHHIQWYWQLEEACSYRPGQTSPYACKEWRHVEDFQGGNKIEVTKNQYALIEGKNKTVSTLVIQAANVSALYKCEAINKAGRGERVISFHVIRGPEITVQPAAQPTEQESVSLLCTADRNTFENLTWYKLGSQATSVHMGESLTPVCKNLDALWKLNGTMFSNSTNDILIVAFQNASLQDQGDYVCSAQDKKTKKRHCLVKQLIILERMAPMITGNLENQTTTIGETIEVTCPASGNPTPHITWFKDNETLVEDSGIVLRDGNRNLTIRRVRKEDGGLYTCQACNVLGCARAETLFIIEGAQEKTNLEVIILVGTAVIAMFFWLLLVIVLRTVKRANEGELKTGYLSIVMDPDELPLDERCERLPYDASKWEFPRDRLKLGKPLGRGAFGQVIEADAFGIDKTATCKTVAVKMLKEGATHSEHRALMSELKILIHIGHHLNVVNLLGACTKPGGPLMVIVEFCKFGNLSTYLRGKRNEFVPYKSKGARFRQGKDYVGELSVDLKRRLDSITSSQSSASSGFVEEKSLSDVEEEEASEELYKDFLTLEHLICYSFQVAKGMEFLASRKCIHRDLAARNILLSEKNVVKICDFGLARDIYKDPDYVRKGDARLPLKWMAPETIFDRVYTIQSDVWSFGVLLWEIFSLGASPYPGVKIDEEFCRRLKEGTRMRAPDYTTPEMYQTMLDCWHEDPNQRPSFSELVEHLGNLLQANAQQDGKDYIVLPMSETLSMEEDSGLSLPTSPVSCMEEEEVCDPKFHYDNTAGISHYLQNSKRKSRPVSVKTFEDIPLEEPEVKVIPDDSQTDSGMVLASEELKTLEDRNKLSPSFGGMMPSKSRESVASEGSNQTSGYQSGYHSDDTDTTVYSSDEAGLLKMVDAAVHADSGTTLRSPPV

The term IC50 denotes the midpoint of a concentration-inhibition curve. High values mean a need for much substance, low ones inhibition by little substance. In assay [1], `Cc1oncc1C(=O)Nc1ccc(C(F)(F)F)cc1` [Compound 40, leflunomide] had an IC50 of 54 µM. Moreover, the “% Inhibition (day)” value in assay [2] (SCID (day 15), 12 mg/kg/day, day 36, P < 0.001) worked out at 47%; in assay [2] (nu/nu, 20 mg/kg/day, day 45, P < 0.01) it was 71%; in assay [3] (SCID (day 9), 15 mg/kg/day, P < 0.002), 53%; in assay [3] (nu/nu, 20 mg/kg/day, P < 0.03), 53%; in assay [4] (nu/nu, 20 mg/kg/day, day 28, P < 0.0001), 64%; in assay [5] (nu/nu, 20 mg/kg/day, day 36, P < 0.04), 53%. The “inhibition of the growth of human prostate (PC-3)” value in assay [2] (in words) is “effectively inhibited the growth”. Moreover, in assay [3] (in words), the “inhibition of the growth of human melanoma (A375)” value is recorded as “effectively inhibited the growth”. In assay [4] (20 mg/kg/day), the “inhibition, CALU-6” value amounted to 63.9%. For the same compound, in assay [4] (in words), the “inhibition of the growth of human lung (Calu-6)” value is given as “effectively inhibited the growth”. Also, the “inhibition of the growth of human ovarian (PA-1)” value in assay [5] (in words) is given as “effectively inhibited the growth”.
For the compound `CC(C)c1cc(/C=C(\C#N)C(=O)NCCCc2ccccc2)cc(C(C)C)c1O` [Compound 5], the IC50 in assay [1] came to 0.7 µM. Besides, the “inhibition of the "reddening" response and subsequent swelling” value in assay [6] was “inhibited the "reddening" response and subsequent swelling”.
As to `COc1cc2ncnc(Nc3ccc(I)cc3)c2cc1OC` [Compound 15, 4-(4-iodophenylamino)-6,7-dimethoxy quinazoline], in assay [6], the “inhibition of the "reddening" response and subsequent swelling” value was “inhibited the "reddening" response and subsequent swelling”.

The record behind these values is US5763441A, “Compounds for the treatment of disorders related to vasculogenesis and/or angiogenesis” (Sugen, Inc., priority 1995, dated 1998).
